Publication PMC4600319 (Malaria Journal, 2015)
Read-outs that look alike come from different tables or passages of the source.

Columns and labels:
[1] = previous report, healthy Thai volunteers; cited from earlier work
[2] = Open-label, three-way, sequential, cross-over pharmacokinetic interaction study, plasma, non-compartmental analysis; format: in vivo, human (healthy Thai adults); conditions: for plasma concentration 1 h post-dose on Day 3: median; for Tmax / AUC(0-t) / half-life / AUC(0-inf) / Cmax: both sexes, human, oral, plasma, median (95 % CI); for Tmax: read-out: tmax; for AUC(0-t): read-out: AUC0–24h; for half-life: read-out: t1/2z (converted); for Cmax: read-out: Cmax
Procedure: This was an open-label, three-way, sequential, cross-over, pharmacokinetic study in healthy adult volunteers. […] Written informed consent for study participation was obtained from each subject before study. […] Consenting adults were screened for eligibility and a physical examination, electrocardiogram (ECG), and laboratory safety tests (haematology, biochemistry, urinalysis, and pregnancy status) were performed. Figure 1 summarizes the study design. The pharmacokinetic sampling was performed sequentially on three occasions. […] Ltd., China). Mefloquine doses were given as three tablets on Day 1 and two tablets on Day 2 (250 mg mefloquine per tablet, manufactured by Atlantic Pharmaceutical Ltd., China). There was a 2-months wash-out period between Period 1 and Period 2. Period 2: subjects received oral doses of LPV/r (400/100 mg), twice daily, for 14 days (27 doses). There was no washout between Period 2 and Period 3. […] Immediately after collection, all blood samples were centrifuged (1200×g, 10 min) and the plasma samples were stored at -80 °C until analysis. […] University. […] An Agilent 1260 LC system (Agilent Technologies, CA, USA) coupled with an API 5000 triple quadrupole mass spectrometer (Applied Biosystems/MDS SCIEX, Foster City, USA), with a TurboVTM ionization source (TIS) interface operated in the positive ion mode, was used for the multiple reaction monitoring LC-MS/MS analysis. […] Nitrogen gas was supplied from an AB-3G (Peak Scientific, Inchinnan, UK). […] Chromatographic separation was performed using an […] XDB C18 column (5 μm, 4.6 mm × 150 mm; Thermo Fisher Scientific, MA, USA) protected with an Eclipse XDB-C8 guard column (Thermo Electron Corporation, MA, USA). The gradient mobile phase consisted of a mixture of 10 mM ammonium acetate with 0.1 % glacial acetic acid and acetonitrile running at a flow rate of 0.7 mL/min. Total run time was 12 min. […] Measurement of plasma concentrations of mefloquine was performed using high performance liquid chromatography (HPLC) according to the method of Karbwang et al. with modifications. Chromatographic separation was performed on a Hypersil ODS column (5 μm, 4.6 mm × 250 mm; Thermo Fisher Scientific, MA, USA) protected with an Eclipse XDB-C8 guard column (Thermo Electron Corporation, MA, USA). […] The UV detector was set at the wavelength of 220 nm. […] This laboratory participates in the NIAID Clinical Pharmacology Quality Assurance Programme Proficiency Testing. Pharmacokinetic parameters were determined using a non-compartmental analysis using WinNonLin software (version 6.3, […], USA). […] The Cmax (maximum concentration); tmax (time of maximum concentration) were determined by direct inspection of the plasma concentration-time data. […] The extrapolated AUC from the last sampling time to infinity was estimated from Ct/elimination rate constant (lz). lz was calculated from at least five concentration-time points of elimination phase. Apparent oral clearance (CL/F) was calculated as dose/AUC0-∞. Volume of distribution (Vz/F) was calculated as CL/F/lz, and the terminal half-life (t1/2z) was calculated as 0.693/lz. […] Statistical analysis of the data was performed using SPSS version 16.0 (Gorichem, The Netherlands). Pharmacokinetic parameters are presented as median and 95 % confidence intervals (95 % CI). […] Comparison of the frequency of subjects with adverse events between the two groups was performed using a Chi-square test. Statistical significance level was set at a = 0.05 for all tests.

[3] = 3-day artesunate-mefloquine alone (Period 1)
[4] = 3-day artesunate-mefloquine with LPV/r (Period 3)
[5] = in the presence of LPV/r vs alone
[6] = in the presence of steady-state LPV/r vs alone

Question: What does the source list for `C[C@H]1[C@@H](O)O[C@@H]2O[C@@]3(C)CC[C@H]4[C@H](C)CC[C@@H]1[C@@]24OO3` [Dihydroartemisinin, dihydroartemisinin]?
Answer: t1/2z [1]: 0.74 h; reduction in the AUC ([2]; LPV/r co-administration): 50%; plasma concentration 1 h post-dose on Day 3 ([2]; artesunate given with LPV/r): 310 ng/mL; plasma concentration 1 h post-dose on Day 3 ([2]; artesunate-mefloquine without LPV/r): 580 ng/mL; Tmax ([2]; 3-day artesunate-mefloquine with LPV/r 400/100 mg twice a day (Period 3)): 2 h; AUC(0-t) [2, 3]: 2370 ng·h/mL; half-life [2, 3]: 4.02 h; AUC(0-inf) [2, 3]: 2680 ng·h/mL; AUC(0-t) [2, 4]: 990 ng·h/mL; Cmax [2, 4]: 310 ng/mL; half-life [2, 4]: 9.99 h; AUC(0-inf) [2, 4]: 1370 ng·h/mL; Cmax ([2]; po, 3-day artesunate-mefloquine alone (Period 1)): 580 ng/mL; Tmax [2, 3]: 2 h; 90 % CI of the GMR of AUC0−24h vs bioequivalent range of 0.8-1.25 ([2]; combination vs alone): outside the acceptable bioequivalent range; 90 % CI of the GMR of Cmax vs bioequivalent range of 0.8-1.25 ([2]; combination vs alone): outside the acceptable bioequivalent range; decrease in AUC0-24 h (as nmol h/mL) relative to the increase in artesunate AUC ([2]; in the presence of LPV/r): about 180%; decrease in AUC0−∞ [2, 5]: ~48.8%; decrease in Cmax [2, 5]: about 46.6%; decrease in AUC0−24h [2, 6]: ~58.2%; increase in t1/2z [2, 6]: 148.5%; extrapolated AUC from the last blood sampling time to infinity (AUCt−∞) ([2]; in vivo): less than 5%; inter-individual variability in AUC0−24h ([2]; in vivo): 80.2%; t1/2z GMR (90 % CI) ([2]; with LPV/r vs alone, geometric mean ratio): 1.89 (1.00, 3.58)
